PubChem BioAssay AID1963435 (Molecular Pharmacology Branch, DTP, NCI, 2024)

Test system: PANC-1 complex spheroid growth, percent test/control
Assay: Anticancer human tumor PANC-1 cell line growth inhibition [Asc];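 also: spheroids exposed to agents for 7 days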;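 as to viability, T/C: percent viability relative to DMSO vehicle wells taken as 100%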
Conditions: for IC50: curve of first compound; for viability, T/C: stronger effect = lower value
Outline: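 Tumor cells were grown as multicellular spheroids with stromal HUVEC and mesenchymal stem cells and treated singly or in combination. Concentrations fell in half-log steps from the clinical Cmax, or from 10 microM where none was known.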

**Q.** Which IC50 (second compound 0.00949 µM) does the source give for `Cc1nc(N2CCC3(CC2)COC(C)C3N)c(CO)nc1Sc1ccnc(N)c1Cl` (configuration not stated) + CCN1C(C(=O)NC23CCC(C(=O)O)(CC2)CC3)C(c2cccc(Cl)c2F)C2(C(=O)Nc3cc(Cl)ccc32)C12CCCCC2 here?
**A.** Its IC50 is > 3 µM.

**Q.** And the IC50 (second compound 0.03 µM)?
**A.** Its IC50 is > 3 µM.

**Q.** And the IC50 (second compound 0.0949 µM)?
**A.** The IC50 was > 3 µM.

**Q.** What about the IC50 (second compound 0.3 µM) of the same molecule?
**A.** Its IC50 is > 3 µM.

**Q.** What about the IC50 (second compound 0.949 µM) of the same molecule?
**A.** The IC50 was > 3 µM.

**Q.** And the IC50 (second compound 3 µM)?
**A.** The IC50 was > 3 µM.

**Q.** What about the viability, T/C (second compound 0.00949 µM, first compound 0.00949 µM) of the same molecule?
**A.** The viability, T/C was 109%.

**Q.** What about the viability, T/C (second compound 0.00949 µM, first compound 0.03 µM) of the same molecule?
**A.** The viability, T/C was 95.8%.

**Q.** And the viability, T/C (second compound 0.00949 µM, first compound 0.0949 µM)?
**A.** The viability, T/C was 92.8%.

**Q.** And the viability, T/C (second compound 0.00949 µM, first compound 0.3 µM)?
**A.** Its viability, T/C is 87.7%.

**Q.** What about the viability, T/C (second compound 0.00949 µM, first compound 0.949 µM) of the same molecule?
**A.** Its viability, T/C is 92.1%.

**Q.** What about the viability, T/C (second compound 0.00949 µM, first compound 3 µM) of the same molecule?
**A.** Its viability, T/C is 92.6%.

**Q.** And the viability, T/C (second compound 0.03 µM, first compound 0.00949 µM)?
**A.** Its viability, T/C is 102%.

**Q.** And the viability, T/C (second compound 0.03 µM, first compound 0.03 µM)?
**A.** Its viability, T/C is 101%.

**Q.** What about the viability, T/C (second compound 0.03 µM, first compound 0.0949 µM) of the same molecule?
**A.** The viability, T/C was 98.7%.

**Q.** What about the viability, T/C (second compound 0.03 µM, first compound 0.3 µM) of the same molecule?
**A.** Its viability, T/C is 89.5%.

**Q.** And the viability, T/C (second compound 0.03 µM, first compound 0.949 µM)?
**A.** Its viability, T/C is 90%.

**Q.** And the viability, T/C (second compound 0.03 µM, first compound 3 µM)?
**A.** Its viability, T/C is 94.1%.

**Q.** And the viability, T/C (second compound 0.0949 µM, first compound 0.00949 µM)?
**A.** The viability, T/C was 103%.

**Q.** What about the viability, T/C (second compound 0.0949 µM, first compound 0.03 µM) of the same molecule?
**A.** Its viability, T/C is 102%.

**Q.** And the viability, T/C (second compound 0.0949 µM, first compound 0.0949 µM)?
**A.** The viability, T/C was 98.6%.

**Q.** What about the viability, T/C (second compound 0.0949 µM, first compound 0.3 µM) of the same molecule?
**A.** Its viability, T/C is 92%.

**Q.** And the viability, T/C (second compound 0.0949 µM, first compound 0.949 µM)?
**A.** Its viability, T/C is 93.7%.

**Q.** What about the viability, T/C (second compound 0.0949 µM, first compound 3 µM) of the same molecule?
**A.** Its viability, T/C is 91.3%.

**Q.** What about the viability, T/C (second compound 0.3 µM, first compound 0.00949 µM) of the same molecule?
**A.** The viability, T/C was 98.7%.

**Q.** What about the viability, T/C (second compound 0.3 µM, first compound 0.03 µM) of the same molecule?
**A.** Its viability, T/C is 98.1%.

**Q.** What about the viability, T/C (second compound 0.3 µM, first compound 0.0949 µM) of the same molecule?
**A.** The viability, T/C was 94.5%.

**Q.** What about the viability, T/C (second compound 0.3 µM, first compound 0.3 µM) of the same molecule?
**A.** The viability, T/C was 96.7%.

**Q.** What about the viability, T/C (second compound 0.3 µM, first compound 0.949 µM) of the same molecule?
**A.** The viability, T/C was 106%.

**Q.** What about the viability, T/C (second compound 0.3 µM, first compound 3 µM) of the same molecule?
**A.** Its viability, T/C is 99.2%.

**Q.** What about the viability, T/C (second compound 0.949 µM, first compound 0.00949 µM) of the same molecule?
**A.** The viability, T/C was 113%.

**Q.** What about the viability, T/C (second compound 0.949 µM, first compound 0.03 µM) of the same molecule?
**A.** The viability, T/C was 91.9%.

**Q.** And the viability, T/C (second compound 0.949 µM, first compound 0.0949 µM)?
**A.** Its viability, T/C is 108%.

**Q.** What about the viability, T/C (second compound 0.949 µM, first compound 0.3 µM) of the same molecule?
**A.** Its viability, T/C is 101%.

**Q.** What about the viability, T/C (second compound 0.949 µM, first compound 0.949 µM) of the same molecule?
**A.** The viability, T/C was 108%.

**Q.** And the viability, T/C (second compound 0.949 µM, first compound 3 µM)?
**A.** Its viability, T/C is 92.9%.

**Q.** What about the viability, T/C (second compound 3 µM, first compound 0.00949 µM) of the same molecule?
**A.** Its viability, T/C is 115%.

**Q.** And the viability, T/C (second compound 3 µM, first compound 0.03 µM)?
**A.** The viability, T/C was 116%.

**Q.** And the viability, T/C (second compound 3 µM, first compound 0.0949 µM)?
**A.** Its viability, T/C is 103%.

**Q.** What about the viability, T/C (second compound 3 µM, first compound 0.3 µM) of the same molecule?
**A.** The viability, T/C was 108%.

**Q.** And the viability, T/C (second compound 3 µM, first compound 0.949 µM)?
**A.** The viability, T/C was 110%.

**Q.** And the viability, T/C (second compound 3 µM, first compound 3 µM)?
**A.** Its viability, T/C is 103%.
